{"source": "patent US20150282506A1", "about": "“FLAVOUR ADDITIVES” (MARS, INCORPORATED, priority 2012, published 2015)", "data": [{"test_system": "T1R1/T1R3 umami receptor", "assay": "In vitro screening of amino acids for ability to activate the T1R1/T1R3 receptor in the presence of 0.2 mM IMP", "format": "cell-based", "settings": "FIG. 10", "values": [{"compound": "N[C@@H](CC(=O)O)C(=O)O", "note": "[aspartic acid]", "activation of the T1R1/T1R3 umami receptor": "do not activate"}, {"compound": "NC(=O)CC[C@H](N)C(=O)O", "note": "[glutamine]", "activation of the T1R1/T1R3 umami receptor": "do not activate"}, {"compound": "N[C@@H](CCC(=O)O)C(=O)O", "note": "[glutamic acid]", "activation of the T1R1/T1R3 umami receptor": "do not activate"}, {"compound": "NCCS(=O)(=O)O", "note": "[taurine]", "activation of the T1R1/T1R3 umami receptor": "do not activate"}, {"compound": "C[C@@H](O)[C@H](N)C(=O)O", "note": "[threonine]", "activation of the T1R1/T1R3 umami receptor": "do not activate"}, {"compound": "O=C(O)[C@@H]1CCCN1", "note": "[proline]", "activation of the T1R1/T1R3 umami receptor": "do not activate"}, {"compound": "N=C(N)NCCC[C@H](N)C(=O)O", "note": "[arginine]", "activation of the T1R1/T1R3 umami receptor": "do not activate"}, {"compound": "NCCCC[C@H](N)C(=O)O", "note": "[lysine]", "activation of the T1R1/T1R3 umami receptor": "do not activate"}, {"compound": "N[C@@H](CSSC[C@H](N)C(=O)O)C(=O)O", "note": "[cystine]", "activation of the T1R1/T1R3 umami receptor": "do not activate"}, {"compound": "NCCC[C@H](N)C(=O)O", "note": "[ornithine]", "activation of the T1R1/T1R3 umami receptor": "do not activate"}, {"compound": "CC[C@H](C)[C@H](N)C(=O)O", "note": "[isoleucine]", "activation of the T1R1/T1R3 umami receptor": "do not activate"}, {"compound": "CC(C)[C@H](N)C(=O)O", "note": "[valine]", "activation of the T1R1/T1R3 umami receptor": "do not activate"}, {"compound": "O=C(O)[C@@H]1C[C@@H](O)CN1", "note": "[hydroxyproline]", "activation of the T1R1/T1R3 umami receptor": "do not activate"}]}]}
